The data set relates to CCRIS mutagenicity, Ames/micronucleus/aberration tests. The data set is described as follows: CCRIS mutagenicity studies.
The mark [1] stands for this setting: Test System: AMES SALMONELLA TYPHIMURIUM, Strain/Indicator: TA98, Metabolic Activation: NONE, Method: STANDARD PLATE.
The mark [2] stands for this setting: Test System: AMES SALMONELLA TYPHIMURIUM, Strain/Indicator: TA98, Metabolic Activation: RAT, LIVER, S-9, AROCLOR 1254, Method: STANDARD PLATE.
The mark [3] stands for this setting: Test System: AMES SALMONELLA TYPHIMURIUM, Strain/Indicator: TA100, Metabolic Activation: NONE, Method: STANDARD PLATE.
Where [4] appears, read: Test System: AMES SALMONELLA TYPHIMURIUM, Strain/Indicator: TA100, Metabolic Activation: RAT, LIVER, S-9, AROCLOR 1254, Method: STANDARD PLATE.
Where [5] appears, read: Test System: AMES SALMONELLA TYPHIMURIUM, Strain/Indicator: TA1535, Metabolic Activation: NONE, Method: STANDARD PLATE.
[6] abbreviates: Test System: AMES SALMONELLA TYPHIMURIUM, Strain/Indicator: TA1535, Metabolic Activation: RAT, LIVER, S-9, AROCLOR 1254, Method: STANDARD PLATE.
Where [7] appears, read: Test System: AMES SALMONELLA TYPHIMURIUM, Strain/Indicator: TA1537, Metabolic Activation: NONE, Method: STANDARD PLATE.
Setting [8] is: Test System: AMES SALMONELLA TYPHIMURIUM, Strain/Indicator: TA1537, Metabolic Activation: RAT, LIVER, S-9, AROCLOR 1254, Method: STANDARD PLATE.
Where [9] appears, read: Test System: AMES SALMONELLA TYPHIMURIUM, Strain/Indicator: TA1538, Metabolic Activation: NONE, Method: STANDARD PLATE.
[10] abbreviates: Test System: AMES SALMONELLA TYPHIMURIUM, Strain/Indicator: TA1538, Metabolic Activation: RAT, LIVER, S-9, AROCLOR 1254, Method: STANDARD PLATE.

SMILES strings stand for the structures. Calls of active or inactive are those of the source. No rule for the calls is given here.

As for `Fc1c(F)c(F)c(Cl)c(F)c1F`, the mutagenic call is “inactive; negative” (Test System: AMES SALMONELLA TYPHIMURIUM, Strain/Indicator: TA98, Metabolic Activation: NONE, Method: PREINCUBATION); “inactive; negative” under setting [1]; “inactive; negative” (Test System: AMES SALMONELLA TYPHIMURIUM, Strain/Indicator: TA98, Metabolic Activation: RAT, LIVER, S-9, AROCLOR 1254, Method: PREINCUBATION); “inactive; negative” under setting [2]; “inactive; negative” (Test System: AMES SALMONELLA TYPHIMURIUM, Strain/Indicator: TA100, Metabolic Activation: NONE, Method: PREINCUBATION); “inactive; negative” under setting [3]. In addition, the mutagenic call reads like this: (Test System: AMES SALMONELLA TYPHIMURIUM, Strain/Indicator: TA100, Metabolic Activation: RAT, LIVER, S-9, AROCLOR 1254, Method: PREINCUBATION) “inactive; negative”; under setting [4], “inactive; negative”; (Test System: AMES SALMONELLA TYPHIMURIUM, Strain/Indicator: TA1535, Metabolic Activation: NONE, Method: PREINCUBATION) “inactive; negative”; under setting [5], “inactive; negative”; (Test System: AMES SALMONELLA TYPHIMURIUM, Strain/Indicator: TA1535, Metabolic Activation: RAT, LIVER, S-9, AROCLOR 1254, Method: PREINCUBATION) “inactive; negative”; under setting [6], “inactive; negative”. The mutagenic call runs as follows: (Test System: AMES SALMONELLA TYPHIMURIUM, Strain/Indicator: TA1537, Metabolic Activation: NONE, Method: PREINCUBATION) “inactive; negative”; under setting [7], “inactive; negative”; (Test System: AMES SALMONELLA TYPHIMURIUM, Strain/Indicator: TA1537, Metabolic Activation: RAT, LIVER, S-9, AROCLOR 1254, Method: PREINCUBATION) “inactive; negative”; under setting [8], “inactive; negative”; (Test System: AMES SALMONELLA TYPHIMURIUM, Strain/Indicator: TA1538, Metabolic Activation: NONE, Method: PREINCUBATION) “inactive; negative”; under setting [9], “inactive; negative”. The mutagenic call is “inactive; negative” (Test System: AMES SALMONELLA TYPHIMURIUM, Strain/Indicator: TA1538, Metabolic Activation: RAT, LIVER, S-9, AROCLOR 1254, Method: PREINCUBATION); “inactive; negative” under setting [10]; “inactive; negative” (Test System: CHINESE HAMSTER OVARY, Strain/Indicator: CHO (HGPRT), Metabolic Activation: NONE); “inactive; negative” (Test System: CHINESE HAMSTER OVARY, Strain/Indicator: CHO (HGPRT), Metabolic Activation: RAT, LIVER, S-9, AROCLOR 1254); “inactive; negative” (Test System: CHINESE HAMSTER OVARY, Strain/Indicator: CHO-K1-BH4 (HGPRT)/6-THIOGUANINE, Metabolic Activation: NONE, Method: SUSPENSION/PLATE); “inactive; negative” (Test System: CHINESE HAMSTER OVARY, Strain/Indicator: CHO-K1-BH4 (HGPRT)/6-THIOGUANINE, Metabolic Activation: RAT, LIVER, S-9, AROCLOR 1254, Method: SUSPENSION/PLATE). Also, the mutagenic call reads like this: (Test System: CHO/HGPRT, Strain/Indicator: CHO-K1-BH4, Metabolic Activation: NONE, Method: SUSPENSION/PLATE) “inactive; negative”; (Test System: CHO/HGPRT, Strain/Indicator: CHO-K1-BH4, Metabolic Activation: RAT, LIVER, S-9, AROCLOR 1254, Method: SUSPENSION/PLATE) “inactive; negative”; (Test System: UDS RAT PRIMARY HEPATOCYTES, Strain/Indicator: THY INCORP, Metabolic Activation: NONE, Method: IN VIVO-IN VITRO) “inactive; negative”; (Test System: UDS RODENT HEPATOCYTES, Strain/Indicator: THY INCORP (NON-S-PHASE), Metabolic Activation: NONE) “inactive; negative”.
As to `CC(=O)Oc1ccccc1C(=O)Oc1ccccc1C(=O)O`, the mutagenic call reads like this: (Test System: AMES SALMONELLA TYPHIMURIUM, Strain/Indicator: TA97, Metabolic Activation: NONE, Method: STANDARD PLATE) “inactive; negative”; (Test System: AMES SALMONELLA TYPHIMURIUM, Strain/Indicator: TA97, Metabolic Activation: RAT, LIVER, S-9, AROCLOR 1254, Method: STANDARD PLATE) “inactive; negative”; under setting [1], “inactive; negative”; under setting [2], “inactive; negative”; under setting [3], “inactive; negative”; under setting [4], “inactive; negative”. For the same compound, the mutagenic call reads like this: under setting [5], “inactive; negative”; under setting [6], “inactive; negative”; under setting [7], “inactive; negative”; under setting [8], “inactive; negative”; under setting [9], “inactive; negative”; under setting [10], “inactive; negative”.
With `O=C(O)/C=C(/CC(=O)O)C(=O)O`, the mutagenic call is “inactive; negative” under setting [1]; “inactive; negative” under setting [2]; “inactive; negative” under setting [3]; “inactive; negative” under setting [4]; “inactive; negative” under setting [5]; “inactive; negative” under setting [6]. The mutagenic call was “inactive; negative” under setting [7] and “inactive; negative” under setting [8].
Regarding `Cc1ncc(CO)c(CO)c1O`, the mutagenic call (Test System: AMES SALMONELLA TYPHIMURIUM, Strain/Indicator: TA97A, Metabolic Activation: NONE, Method: PREINCUBATION) was “inactive; negative”; the mutagenic call (Test System: AMES SALMONELLA TYPHIMURIUM, Strain/Indicator: TA97A, Metabolic Activation: RAT, LIVER, S-9, AROCLOR 1254, Method: PREINCUBATION) was “inactive; negative”; the mutagenic call (Test System: AMES SALMONELLA TYPHIMURIUM, Strain/Indicator: TA102, Metabolic Activation: NONE, Method: PREINCUBATION) is “inactive; negative”; the mutagenic call (Test System: AMES SALMONELLA TYPHIMURIUM, Strain/Indicator: TA102, Metabolic Activation: RAT, LIVER, S-9, AROCLOR 1254, Method: PREINCUBATION) is “inactive; negative”.
As for `COc1cc(Cc2cnc(N)nc2N)cc(OC)c1OC`, the mutagenic call is, setting by setting: (Test System: AMES SALMONELLA TYPHIMURIUM, Strain/Indicator: TA97A, Metabolic Activation: NONE, Method: STANDARD PLATE) “inactive; negative”; (Test System: AMES SALMONELLA TYPHIMURIUM, Strain/Indicator: TA97A, Metabolic Activation: RAT, LIVER, S-9, PHENOBARBITAL, Method: STANDARD PLATE) “inactive; negative”; under setting [1], “active; positive”; (Test System: AMES SALMONELLA TYPHIMURIUM, Strain/Indicator: TA98, Metabolic Activation: RAT, LIVER, S-9, PHENOBARBITAL, Method: STANDARD PLATE) “active; positive”; under setting [3], “inactive; negative”; (Test System: AMES SALMONELLA TYPHIMURIUM, Strain/Indicator: TA100, Metabolic Activation: RAT, LIVER, S-9, PHENOBARBITAL, Method: STANDARD PLATE) “inactive; negative”. The mutagenic call (Test System: AMES SALMONELLA TYPHIMURIUM, Strain/Indicator: TA102, Metabolic Activation: NONE, Method: STANDARD PLATE) is “inactive; negative”; the mutagenic call (Test System: AMES SALMONELLA TYPHIMURIUM, Strain/Indicator: TA102, Metabolic Activation: RAT, LIVER, S-9, PHENOBARBITAL, Method: STANDARD PLATE) was “inactive; negative”; the mutagenic call under setting [9] is “active; positive”; the mutagenic call (Test System: AMES SALMONELLA TYPHIMURIUM, Strain/Indicator: TA1538, Metabolic Activation: RAT, LIVER, S-9, PHENOBARBITAL, Method: STANDARD PLATE) is “active; positive”; the mutagenic call (Test System: E.COLI, Strain/Indicator: WP2UVRA/PKM101, Metabolic Activation: NONE, Method: PREINCUBATION) is “inactive; negative”; the mutagenic call (Test System: E.COLI, Strain/Indicator: WP2UVRA/PKM101, Metabolic Activation: RAT LIVER S-9, PHENOBARBITAL AND 5,6-BENZOFLAVONE, Method: PREINCUBATION) was “inactive; negative”.

These data come from PubChem BioAssay AID1259407 (Chemical Carcinogenesis Research Information System (CCRIS), 2018).
